The values below come from patent US20250026734A1 (priority 2021, published 2025).

One data set concerns SARS-CoV-2 (WK-521). As to the kind of experiment: microbe, parasite or virus in culture. It counts as cell-based. Conditions: Severe acute respiratory syndrome coronavirus 2, HEK-293T, 72 h; for IC50: read-out: IC50 (concentration of agent which reduces viral production and replication by 50%); for IC90: read-out: IC90 (concentration of agent which reduces viral production and replication by 90%).

Data set [1] is described as follows: in vitro. Conditions: human.
Data set [2] has as its system SARS-CoV (SARS-CoV-HKU-39849). Put plainly: microbe, parasite or virus in culture. To be noted: Severe acute respiratory syndrome coronavirus, HEK-293T. The class given is cell-based.
Data set [3] deals with MERS-CoV (MERS-CoV-EMC/2012). As to the kind of experiment: microbe, parasite or virus in culture. The class given is cell-based. Conditions: Middle East respiratory syndrome-related coronavirus, HEK-293T.
Data set [4] in a line: in vitro. Conditions: African green monkey.

Molecules are shown by their SMILES. Where only a bound is given, the exact number is not on record here.

As to `CCCCn1c(=O)c2ccc(NC(=O)C(C)C)cc2c2cc(C(O)(C(F)(F)F)C(F)(F)F)ccc21` [NR-16], in the data set on SARS-CoV-2 (WK-521), the IC50 was determined as 575 nM and the IC90 was 2.03 µM. Besides, the CC50 in “in vitro [1]” amounted to 15.8 µM.

On to `CCCCn1c(=O)c2ccc(NC(=O)CO)cc2c2cc(C(O)(C(F)(F)F)C(F)(F)F)ccc21` [NR-17], for which, in the data set with SARS-CoV-2 (WK-521), the IC50 came to 519 nM and the IC90 came to 3.35 µM. In the data set “in vitro [1]”, this compound had a CC50 of over 20 µM.

With `CCCCn1c(=O)c2ccc(NC(=O)C(C)N)cc2c2cc(C(O)(C(F)(F)F)C(F)(F)F)ccc21` (centres unmarked) [NR-28], in the data set on SARS-CoV-2 (WK-521), the IC50 was 120 nM and the IC90 worked out at 1.68 µM. The compound further had a CC50 in the data set “in vitro [1]” of 11.8 µM.

`CCCCn1c(=O)c2ccc(NC(=O)[C@H]3CC(O)CN3)cc2c2cc(C(O)(C(F)(F)F)C(F)(F)F)ccc21` (some centres unmarked) [NR-30]: the figures for the IC50 (in the data set with SARS-CoV-2 (WK-521); in data set [2]; in data set [3]) were 59 nM, 6.95 µM and 12.5 µM, respectively. Moreover, the results for the IC90 (in the data set with SARS-CoV-2 (WK-521); in data set [2]; in data set [3]) were 1.84 µM, 19.4 µM and 21.8 µM, respectively. The CC50 in “in vitro [1]” worked out at 13.6 µM.

For the compound `CCCCn1c(=O)c2ccc(N)cc2c2cc(C(O)(C(F)(F)F)C(F)(F)F)ccc21` [NR-31-5], in the data set with SARS-CoV-2 (WK-521), the IC50 was 546 nM and the IC90 was 2.63 µM. The CC50 in “in vitro [1]” was over 20 µM.

On to `CCCCn1c(=O)c2ccc(NCCO)cc2c2cc(C(O)(C(F)(F)F)C(F)(F)F)ccc21` [NR-31], for which the IC50 is 63 nM in the data set with SARS-CoV-2 (WK-521), 0.74 µM in data set [2] and 2.15 µM in data set [3]. Moreover, the values for the IC90 (in the data set with SARS-CoV-2 (WK-521); in data set [2]; in data set [3]) were 1.76 µM, 6.24 µM and 5.96 µM, respectively. Besides, the CC50 is over 20 µM in “in vitro [1]” and 17.6 µM in the data set “in vitro [4]”.

As to `CCCCn1c(=O)c2ccc(NC(=O)CCO)cc2c2cc(C(O)(C(F)(F)F)C(F)(F)F)ccc21` [NR-38], in the data set on SARS-CoV-2 (WK-521), the IC50 came to 58 nM and the IC90 was over 20 µM. For the same compound, the CC50 in “in vitro [1]” is over 20 µM.

For `CCCCn1c(=O)c2ccc(NC(=O)C(C)N)c(F)c2c2cc(C(O)(C(F)(F)F)C(F)(F)F)ccc21` (centres unmarked) [NR-44], in the data set with SARS-CoV-2 (WK-521), the IC50 is 380 nM and the IC90 came out at 3.76 µM. In “in vitro [1]”, the CC50 was determined as 10.3 µM.

With `CCCCn1c(=O)c2ccc(NC(=O)[C@H](N)CO)cc2c2cc(C(O)(C(F)(F)F)C(F)(F)F)ccc21` [NR-47], in the data set on SARS-CoV-2 (WK-521), the IC50 stood at 700 nM and the IC90 came to 3.3 µM. In addition, the CC50 in “in vitro [1]” is 11.7 µM.

Regarding `CCCCn1c(=O)c2cc(NC(=O)C(C)N)ccc2c2cc(C(O)(C(F)(F)F)C(F)(F)F)ccc21` (centres unmarked) [NR-50], in the data set with SARS-CoV-2 (WK-521), the IC50 stood at 650 nM and the IC90 worked out at 4.6 µM. Besides, the CC50 in “in vitro [1]” was 12 µM.

For the compound `CCCCn1c(=O)c2cc(NC(=O)[C@@H]3C[C@@H](O)CN3)ccc2c2cc(C(O)(C(F)(F)F)C(F)(F)F)ccc21` [NR-52], in the data set with SARS-CoV-2 (WK-521), the IC50 came to 140 nM and the IC90 worked out at 2.43 µM. This compound also came in with a CC50 in “in vitro [1]” of 18.1 µM.

With `CCCCn1c(=O)c2cc(F)c(N)cc2c2cc(C(O)(C(F)(F)F)C(F)(F)F)ccc21` [NR-54], in the data set with SARS-CoV-2 (WK-521), the IC50 is 940 nM and the IC90 is 4.64 µM. Moreover, in “in vitro [1]”, the CC50 came out at 27.2 µM.

In the case of `CCCCn1c(=O)c2cc(F)c(NCc3ccc(O)cc3)cc2c2cc(C(O)(C(F)(F)F)C(F)(F)F)ccc21` [NR-55], in the data set on SARS-CoV-2 (WK-521), the IC50 stood at 150 nM and the IC90 is 6.79 µM. The compound further displayed a CC50 in “in vitro [1]” of over 80 µM.

`CCCCn1c(=O)c2cc(F)c(NCCO)cc2c2cc(C(O)(C(F)(F)F)C(F)(F)F)ccc21` [NR-56]: in the data set on SARS-CoV-2 (WK-521), the IC50 was determined as 290 nM and the IC90 was 8.07 µM. The CC50 in “in vitro [1]” was determined as 29.5 µM.

For the compound `CCCCn1c(=O)c2cc(NC(=O)NCCO)ccc2c2cc(C(O)(C(F)(F)F)C(F)(F)F)ccc21` [NR-72], in the data set on SARS-CoV-2 (WK-521), the IC50 is 620 nM and the IC90 stood at 2.29 µM. Also, in “in vitro [1]”, the CC50 was 9 µM.

For `CCCCn1c(=O)c2cc(F)c(NC3CCOC3)cc2c2cc(C(O)(C(F)(F)F)C(F)(F)F)ccc21` (centres unmarked) [NR-78], in the data set with SARS-CoV-2 (WK-521), the IC50 came to 650 nM and the IC90 is 3.59 µM. In addition, the CC50 in “in vitro [1]” is 17.8 µM.

For the compound `CCCCn1c(=O)c2cc(NC=O)ccc2c2cc(C(O)(C(F)(F)F)C(F)(F)F)ccc21` [NR-86], in the data set with SARS-CoV-2 (WK-521), the IC50 came out at 80 nM and the IC90 stood at 3.07 µM. The compound further came in with a CC50 in “in vitro [1]” of 16.7 µM.

For `CCCCn1c(=O)c2ccc(N)c(SC)c2c2cc(C(O)(C(F)(F)F)C(F)(F)F)ccc21` [NR-87], in the data set with SARS-CoV-2 (WK-521), the IC50 worked out at 850 nM and the IC90 was 4.9 µM. Further, the CC50 in the data set “in vitro [1]” stood at 18.2 µM.

For the compound `CCCCn1c(=O)c2ccc(NC(CO)CO)cc2c2cc(C(O)(C(F)(F)F)C(F)(F)F)ccc21` [NR-89], the IC50 in the data set on SARS-CoV-2 (WK-521) was 350 nM; in data set [2], 4.74 µM; in data set [3], 6.77 µM. Moreover, the IC90 came to 6.1 µM with SARS-CoV-2 (WK-521), 20.2 µM in data set [2] and 19 µM in data set [3]. In addition, the CC50 in “in vitro [1]” was over 20 µM.

As to `CCCCn1c(=O)c2ccc(NCC(O)CO)cc2c2cc(C(O)(C(F)(F)F)C(F)(F)F)ccc21` (centres unmarked) [NR-90], the IC50 in the data set with SARS-CoV-2 (WK-521) came out at 580 nM; in data set [2], 2.4 µM; in data set [3] it was 3.84 µM. In addition, the IC90 was 3.87 µM with SARS-CoV-2 (WK-521), 14.2 µM in data set [2] and 13.6 µM in data set [3]. In addition, the CC50 in the data set “in vitro [1]” was over 20 µM.

With `CC(C)Cn1c(=O)c2ccc(NCCO)cc2c2cc(C(O)(C(F)(F)F)C(F)(F)F)ccc21` [NR-91], in the data set with SARS-CoV-2 (WK-521), the IC50 was 510 nM and the IC90 came to 4 µM. Further, the CC50 in “in vitro [1]” was over 20 µM.

For the compound `CCCn1c(=O)c2ccc(NCCO)cc2c2cc(C(O)(C(F)(F)F)C(F)(F)F)ccc21` [NR-92], in the data set with SARS-CoV-2 (WK-521), the IC50 is 720 nM and the IC90 was 3.42 µM. In “in vitro [1]”, this compound yielded a CC50 of over 20 µM.

As to `CCCCn1c(=O)c2ccc(NCC(N)=O)cc2c2cc(C(O)(C(F)(F)F)C(F)(F)F)ccc21` [NR-96], in the data set with SARS-CoV-2 (WK-521), the IC50 amounted to 680 nM and the IC90 came out at 4 µM. The compound further gave a CC50 in the data set “in vitro [1]” of over 20 µM.

Consider `CCCCn1c(=O)c2ccc(NCCCO)cc2c2cc(C(O)(C(F)(F)F)C(F)(F)F)ccc21` [NR-98], for which, in the data set on SARS-CoV-2 (WK-521), the IC50 stood at 1160 nM and the IC90 was over 10 µM. In “in vitro [1]”, this compound registered a CC50 of over 20 µM.

On to `CCCCn1c(=O)c2ccc(NCCCCO)cc2c2cc(C(O)(C(F)(F)F)C(F)(F)F)ccc21` [NR-99], for which, in the data set on SARS-CoV-2 (WK-521), the IC50 came to 1300 nM and the IC90 is over 10 µM. In “in vitro [1]”, this compound gave a CC50 of over 20 µM.

Turning to `CCCCn1c(=O)c2ccc(NCCCCCO)cc2c2cc(C(O)(C(F)(F)F)C(F)(F)F)ccc21` [NR-100], in the data set on SARS-CoV-2 (WK-521), the IC50 is 590 nM and the IC90 is over 10 µM. The compound further returned a CC50 in the data set “in vitro [1]” of over 20 µM.

Consider `CCCCn1c(=O)c2ccc(C(CCO)CCO)cc2c2cc(C(O)(C(F)(F)F)C(F)(F)F)ccc21` [NR-101], for which, in the data set on SARS-CoV-2 (WK-521), the IC50 came out at 540 nM and the IC90 is over 10 µM. Besides, the CC50 in the data set “in vitro [1]” is over 20 µM.

Turning to `CCCCn1c(=O)c2ccc(NCCN)cc2c2cc(C(O)(C(F)(F)F)C(F)(F)F)ccc21` [NR-102], in the data set with SARS-CoV-2 (WK-521), the IC50 came to 750 nM and the IC90 worked out at 2.4 µM. For the same compound, the CC50 in the data set “in vitro [1]” stood at 5.5 µM.

Turning to `CCCCn1c(=O)c2ccc(NCCC)cc2c2cc(C(O)(C(F)(F)F)C(F)(F)F)ccc21` [NR-103], in the data set on SARS-CoV-2 (WK-521), the IC50 turned out to be 2350 nM and the IC90 is over 10 µM. In addition, the CC50 in “in vitro [1]” was over 20 µM.

For `CCCCn1c(=O)c2ccc(NCCN(C)C)cc2c2cc(C(O)(C(F)(F)F)C(F)(F)F)ccc21` [NR-105], in the data set with SARS-CoV-2 (WK-521), the IC50 was found to be 1480 nM and the IC90 is over 10 µM. The compound further came in with a CC50 in “in vitro [1]” of 7.4 µM.

As for `CCCCn1c(=O)c2ccc(NC(C)=O)cc2c2cc(C(O)(C(F)(F)F)C(F)(F)F)ccc21` [TK-04], in the data set with SARS-CoV-2 (WK-521), the IC50 was 576 nM and the IC90 is 5.97 µM. The CC50 in “in vitro [1]” was 7.13 µM.
